Assay results reported in ChEMBL document CHEMBL1125986, “()-2-amino-2-thiazoline-4-ethanoic acid; a novel, specific GABAA receptor agonist” (Bioorg Med Chem Lett, 1991).

Key:
Rattus norvegicus = organism: Rattus norvegicus; assay: Tested for inhibition of CA1 population spike in rat hippocampal slice by electrophysiological experiment; assay type: functional; conditions: Hippocampus
[1] = biological target: GABA-A receptor; anion channel; assay: Effective concentration for stimulation of [3H]diazepam binding to rat cortical membranes; assay type: functional, cell membranes, Membrane
[2] = biological target: GABA-A receptor; anion channel; assay: Inhibition of [3H]-GABA binding to GABA-A receptor in rat cerebral cortex homogenates; assay type: tissue-based
[3] = biological target: GABA-A receptor; anion channel (Rattus norvegicus) (UniProt O09028+P15431+P18506+P18508+P19969+P20236+P23574+P23576+P28471+P28473+P30191+P62813+P63079+P63138+Q91ZM7+Q9ES14); assay: Enhanced [3H]benzodiazepine binding in rat cortical membranes at 100 uM; assay type: cell membranes

| Structure (SMILES) | EC50 (Rattus norvegicus) [µM] | EC50 [1] [µM] | IC50 [2] [µM] | Activity [3] [%] |
| --- | --- | --- | --- | --- |
| Oc1noc2c1CCNC2 [GABOXADOL] | 55 |  |  |  |
| NC1=NC(CC(=O)O)CS1 (centres undefined) | 28.3 | 3.4 | 0.5 | 142 |
| O=C(O)C1=CCNCC1 [ISOGUVACINE] | 13 | 3.1 | 0.49 | 156 |
